Laboratory results reported in patent US20230241057A1, “COMPOUNDS FOR THE PREVENTION, TREATMENT AND DIAGNOSIS OF THROMBI” (INSERM (INSTITUT NATIONAL DE LA SANTÉ ET DE LA RECHERCHE …, priority 2020, published 2023).

Tests used:
blood platelets = test: Platelet adhesion to coated nitinol disks, phalloidin-AlexaFluor 488 staining; type: cell-based; details: for Platelet binding (% of max): coated nitinol disks immersed 10 min in blood withdrawn in PPAK, mean±SEM, 6/coating
Text: (§1) Nitinol disks are left untouched (bare metal) or coated with the tested chromatin ligands following a polydopamine, DBCO-PEG4-amine and azide derivative ligand sequential dip-coating layering procedure.
(§2) Each dot corresponds to the mean binding (% of max, mean±SEM) of chromatin (X-axis) and platelet (Y-axix) with the standard error bars parallel to the respective axis.
(§3) Different linkers were combined with piperaquine and the resulting azide derivatives were used for coating nitinol disks (N=6 for each compound), following the described 3-step dip-coating procedure. Platelet adhesion (left panel) was evaluated by analyzing the surface and intensity of the phalloidin staining (green fluorescence) after immersion of the disks (N^o=6/coating) for 10 min in blood withdrawn in PPAK (thrombin inhibitor providing a transient anticoagulation). The binding of extracellular chromatin was evaluated by applying for 3 minutes the disks on the bottom of wells in which fresh human neutrophils were stimulated with nigericin for 4 hours, to promote the formation of neutrophil extracellular traps (NETs). Extracellular chromatin was stained with the cell impermeant nuclear dye Sytox Green.

[1] = system: extracellular chromatin (NETs); test: Extracellular chromatin (NETs) binding to coated nitinol disks, Sytox Green staining; design: species or system human; details: for Chomatin binding (% of max): coated nitinol disks applied 3 minutes on nigericin-stimulated human neutrophils, mean±SEM, 6/coating; for Chromatin/Platelet binding ratio: ratio of chromatin binding to platelet binding (% of max)
Text: as §1
Extracellular chromatin adhering to the disk surface was stained with the cell impermeant nuclear dye Sytox Green.
as §2, §3

[2] = system: thrombus material (DNA and proteins); details: coated nitinol disks vs bare metal; thrombus slice 5 minutes at 37° C. in human plasma; Hoechst 33342 / Evans Blue staining
Procedure: Polydopamine (1 mg/ml in tris buffer, pH 8.5, 22±2 hours)
A fresh thrombus was prepared with human whole blood additioned with PMA 100 nM and ionomycin 1 μM to promote strong leukocyte activation leading to the release of extracellular chromatin within the thrombus. Slice of the same thrombus were layered onto coated and bare metal disks in the wells of a 48-well plate, covered with human plasma and incubated at 37° C. on an orbital shaker for 5 minutes. The thrombus slices were mechanically removed using tweezers, the disk washed in PBS and stained with a solution made of Hoechst 33342 (1 μg/ml, to stain DNA) and Evans Blue (3%, to stain proteins) in PBS for 5 minutes. […] The image analysis was performed using the Image J open software.

[3] = coated disk compared to bare metal

`[N-]=[N+]=NCCOCCOCCNC(=O)CCc1ccc(N(CCCl)CCCl)cc1` [PPM, N-(2-(2-(2-azidoethoxy)ethoxy)ethyl)-3-(4-(bis(2-chloroethyl)amino)phenyl)propanamide] was tested, and the “Platelet binding (% of max)” value (blood platelets) was 48.8 ± 5.59 % of max, the “Chomatin binding (% of max)” value [1] was 36.75 ± 5.78 % of max and the Chromatin/Platelet binding ratio [1] was 0.75.
With `CSc1ccc2c(c1)N(CCC1CCCCN1C)c1ccccc1S2` (centres unmarked) [thioridazine] the “DNA and proteins captured from the thrombus (Integrated Density)” value [2] was “capture more DNA and proteins”.
`[N-]=[N+]=NCCOCCOCCNC(=O)c1cc2cc(N(CCCl)CCCl)ccc2o1` [MBF, N-(2-(2-(2-azidoethoxy)ethoxy)ethyl)-5-(bis(2-chloroethyl)amino)benzofuran-2-carboxamide] was tested, and the “Platelet binding (example disk image, in words)” value (blood platelets; [3]) was “low platelet binding”, the “Platelet binding (% of max)” value (blood platelets) was 23.18 ± 4.05 % of max and the “Chromatin binding (example disk image, in words)” value [1, 3] was “high”. The “Chomatin binding (% of max)” value [1] was 66.07 ± 13.21 % of max and the Chromatin/Platelet binding ratio [1] was 2.85.
`Cn1cc(NC(=O)c2cc(NC(=O)c3cc(NC=O)cn3C)cn2C)cc1C(=O)NCCC(=N)N` [Distamycin, reference compound] was tested, and the “Platelet binding (% of max)” value (blood platelets) was 12.42 ± 1.72 % of max, the “Chomatin binding (% of max)” value [1] was 12.26 ± 4.14 % of max and the Chromatin/Platelet binding ratio [1] was 0.99.
With `CCCCCOCCCCCN=[N+]=[N-]` [Pipe-2] the “Platelet binding (% of max)” value (blood platelets) was 16 ± 5.78 % of max, the “Chomatin binding (% of max)” value [1] was 57.5 7.05 % of max and the Chromatin/Platelet binding ratio [1] was 3.59.
For `O=C(O)c1cn(C2CC2)c2cc(N3CCNCC3)c(F)cc2c1=O` [Ciprofloxacin, reference compound], the “Platelet binding (% of max)” value (blood platelets) was 27.57 ± 3.22 % of max and the “Chomatin binding (% of max)” value [1] was 23.63 ± 9.59 % of max.
